Target: recombinant DYRK1A kinase (Homo sapiens (Human), UniProt Q13627)
Assay: DYRK1A kinase assay (Ser/Thr 18 peptide Z-lyte FRET assay)
Type: biochemical
Settings: recombinant DYRK1A 0.25 µg/mL, ATP 15 µM, Ser/Thr peptide 18 4 µM, one hour at room temperature; table head prints EC50, method says IC50
Outline: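 Recombinant human DYRK1A (0.25 µg/mL) with 15 µM ATP and 4 µM Ser/Thr 18 peptide was incubated 1 h at room temperature with compound (11-point, 10 µM top), in duplicate. Z-lyte FRET read-out (coumarin/fluorescein emission ratio) was converted to percent phosphorylation; IC50 from non-linear regression.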

EC50 [nM] | SMILES
18 | Cc1nc2ccc(-c3ccn4nc(N[C@H]5CC[C@@H](N6CCOCC6)CC5)ncc34)nc2n1CC(F)F [Compound 1125, 5-(3-(2,2-Difluoroethyl)-2-methyl-3H-imidazo[4,5-b]pyridin-5-yl)-N-(cis-4-morpholinocyclohexyl)pyrrolo[2,1-f][1,2,4]triazin-2-amine]
5 | Cc1nc2ccc(-c3ccn4nc(N[C@H]5CCN(CC(C)C)C[C@H]5F)ncc34)nc2n1CC(F)F [Compound 1909, 5-(3-(2,2-difluoroethyl)-2-methyl-3H-imidazo[4,5-b]pyridin-5-yl)-N-((3R,4S)-3-fluoro-1-isobutylpiperidin-4-yl)pyrrolo[2,1-f][1,2,4]triazin-2-amine]
45 | CC(C)(F)CNc1ncc2c(-c3ccc4nccn4n3)ccn2n1 [Compound 145, N-(2-Fluoro-2-methylpropyl)-5-(imidazo [1,2-b]pyridazin-6-yl)pyrrolo[2,1-f] [1,2,4]triazin-2-amine]
2 | Cc1nc2ccc(-c3ccn4nc(N[C@H]5C[C@@H](N6CCOCC6)C5)ncc34)nc2n1CC(F)F [Compound 1892, 5-(3-(2,2-Difluoroethyl)-2-methyl-3H-imidazo[4,5-b]pyridin-5-yl)-N-(cis-3-morpholinocyclobutyl)pyrrolo[2,1-f][1,2,4]triazin-2-amine]
3 | CC1(C)CC(Nc2ncc3c(-c4cnc5nccn5c4)ccn3n2)C1 [Compound 237, N-(3,3-Dimethylcyclobutyl)-5-(imidazo[1,2-a]pyrimidin-6-yl)pyrrolo[2,1-f] [1,2,4]triazin-2-amine]
15 | CC(C)(F)CNc1ncc2c(-c3ccc4ncccc4c3)ccn2n1 [Compound 1281, N-(2-Fluoro-2-methylpropyl)-5-(quinolin-6-yl)pyrrolo[2,1-f][1,2,4]triazin-2-amine]
1 | CC(=O)N[C@]1(C)C[C@@H](Nc2ncc3c(-c4ccn5nccc5c4)ccn3n2)C1 [Compound 1983, N-(trans-1-Methyl-3-((5-(pyrazolo[1,5-a]pyridin-5-yl)pyrrolo[2,1-f][1,2,4]triazin-2-yl)amino)cyclobutyl)acetamide]
4 | Cc1nc2ncc(-c3ccn4nc(NCC(C)(C)F)ncc34)cc2n1CC(F)F [Compound 642, 5-(1-(2,2-difluoroethyl)-2-methyl-1H-imidazo[4,5-b]pyridin-6-yl)-N-(2-fluoro-2-methylpropyl)pyrrolo[2,1-f][1,2,4]triazin-2-amine]
3 | Cc1nc2ccc(-c3ccn4nc(N[C@H]5C[C@@H](CO)C5)ncc34)nc2n1CC(F)F [Compound 1834, (cis-3-((5-(3-(2,2-Difluoroethyl)-2-methyl-3H-imidazo[4,5-b]pyridin-5-yl)pyrrolo[2,1-f][1,2,4]triazin-2-yl)amino)cyclobutyl)methanol]
31 | Cc1nc2ncc(-c3ccn4nc(N[C@H]5CCN(C)C[C@H]5F)ncc34)cc2n1CC(F)F [Compound 1887, 5-(1-(2,2-Difluoroethyl)-2-methyl-1H-imidazo[4,5-b]pyridin-6-yl)-N-((3R,4S)-3-fluoro-1-methylpiperidin-4-yl)pyrrolo[2,1-f][1,2,4]triazin-2-amine]
4 | CC(=O)N1CC[C@H](Nc2ncc3c(-c4ccc5nc(C)n(CC(F)F)c5n4)ccn3n2)[C@H](F)C1 [Compound 1952, 1-((3R,4S)-4-((5-(3-(2,2-Difluoroethyl)-2-methyl-3H-imidazo[4,5-b]pyridin-5-yl)pyrrolo[2,1-f] [1,2,4]triazin-2-yl)amino)-3-fluoropiperidin-1-yl)ethan-1-one]
2 | Cc1nc2ncc(-c3ccn4nc(N[C@H]5CC[C@@H](OCCO)CC5)ncc34)cc2n1CC(F)F [Compound 1878, 2-((cis-4-((5-(1-(2,2-Difluoroethyl)-2-methyl-1H-imidazo[4,5-b]pyridin-6-yl)pyrrolo[2,1-f][1,2,4]triazin-2-yl)amino)cyclohexyl)oxy)ethan-1-ol]
45 | CC1(CNc2ncc3c(-c4ccc5nccn5c4)ccn3n2)CC1 [Compound 12, 5-(Imidazo[1,2-a]pyridin-6-yl)-N-((1-methylcyclopropyl)methyl)pyrrolo[2,1-f][1,2,4]triazin-2-amine]
5 | C[C@]1(O)C[C@@H](Nc2ncc3c(-c4cnc5ncccc5c4)ccn3n2)C1 [Compound 1825, cis-3-((5-(1,8-Naphthyridin-3-yl)pyrrolo[2,1-f][1,2,4]triazin-2-yl)amino)-1-methylcyclobutan-1-ol]
6 | Cc1nc2ccc(-c3ccn4nc(N[C@H]5CC[C@@H](CN6CCN(C)CC6)CC5)ncc34)nc2n1CC(F)F [Compound 1841, 5-(3-(2,2-Difluoroethyl)-2-methyl-3H-imidazo[4,5-b]pyridin-5-yl)-N-(cis-4-((4-methylpiperazin-1-yl)methyl)cyclohexyl)pyrrolo[2,1-f][1,2,4]triazin-2-amine]
25 | Cc1cnc2ncc(-c3ccn4nc(NCC(C)(C)F)ncc34)cn12 [Compound 358, N-(2-Fluoro-2-methylpropyl)-5-(3-methylimidazo[1,2-a]pyrimidin-6-yl) pyrrolo[2,1-f] [1,2,4]triazin-2-amine]

EC50 [nM] | SMILES
3 | c1cnc2ccc(-c3ccn4nc(NC5CC6(CNC6)C5)ncc34)cc2c1 [Compound 1747, 5-(Quinolin-6-yl)-N-(2-azaspiro[3.3]heptan-6-yl)pyrrolo[2,1-f][1,2,4]triazin-2-amine]
14 | CO[C@H]1C[C@H](Nc2ncc3c(-c4cnc5nccn5c4)ccn3n2)C1 [Compound 240, 5-(Imidazo[1,2-a]pyrimidin-6-yl)-N-(trans-3-methoxycyclobutyl)pyrrolo [2,1-f] [1,2,4]triazin-2-amine]
3 | CC(=O)N[C@H]1CC[C@@H](Nc2ncc3c(-c4ccc5nc(C)n(CC(F)F)c5n4)ccn3n2)CC1 [Compound 1898, N-(cis-4-((5-(3-(2,2-Difluoroethyl)-2-methyl-3H-imidazo [4,5-b]pyridin-5-yl)pyrrolo[2,1-f] [1,2,4]triazin-2-yl)amino)cyclohexyl)acetamide]
15 | c1cn2cc(-c3ccn4nc(NC5CCOCC5)ncc34)cnc2n1 [Compound 280, 5-(imidazo[1,2-a]pyrimidin-6-yl)-N-(tetrahydro-2H-pyran-4-yl)pyrrolo[2,1-f][1,2,4]triazin-2-amine]
379 | Cc1nc2nc(-c3ccn4nc(N[C@H]5CC[C@@H](OC(F)(F)F)CC5)ncc34)cnc2n1CC(F)F [Compound 1971, 5-(1-(2,2-Difluoroethyl)-2-methyl-1H-imidazo[4,5-b]pyrazin-5-yl)-N-(cis-4-(trifluoromethoxy)cyclohexyl)pyrrolo[2,1-f][1,2,4]triazin-2-amine]
5100 | CC(C)(F)CNc1ncc2c(-c3ccc4ncc(C(=O)N5CCCC5)n4c3)ccn2n1 [Compound 74, (6-(2-((2-Fluoro-2-methylpropyl)amino)pyrrolo[2,1-f][1,2,4]triazin-5-yl)imidazo[1,2-a]pyridin-3-yl)(pyrrolidin-1-yl)methanone]
41 | CC(C)CNc1ncc2c(-c3ccc4nccn4c3)ccn2n1 [Compound 2, 5-(Imidazo[1,2-a]pyridin-6-yl)-N-isobutylpyrrolo[2,1-f][1,2,4]triazin-2-amine]
11 | FC(F)(F)C1(CNc2ncc3c(-c4cnc5nccn5c4)ccn3n2)CC1 [Compound 226, 5-(Imidazo[1,2-a]pyrimidin-6-yl)-N-((1-(trifluoromethyl)cyclopropyl)methyl)pyrrolo[2,1-f][1,2,4]triazin-2-amine]
6 | CO[C@H]1C[C@@H](Nc2ncc3c(-c4cnc5nccn5c4)ccn3n2)C1 [Compound 239, 5-(Imidazo[1,2-a]pyrimidin-6-yl)-N-(cis-3-methoxycyclobutyl)pyrrolo[2,1-f] [1,2,4]triazin-2-amine]
5 | Cc1nc2ccc(-c3ccn4nc(N[C@@H]5CCN(C)C[C@@H]5F)ncc34)nc2n1CC(F)F [Compound 1853, 5-(3-(2,2-Difluoroethyl)-2-methyl-3H-imidazo[4,5-b]pyridin-5-yl)-N-((3S,4R)-3-fluoro-1-methylpiperidin-4-yl)pyrrolo[2,1-f][1,2,4]triazin-2-amine]
3 | CC(=O)N[C@H]1CC[C@H](Nc2ncc3c(-c4ccc5nc(C)n(CC(F)F)c5n4)ccn3n2)CC1 [Compound 1844, N-(trans-4-((5-(3-(2,2-Difluoroethyl)-2-methyl-3H-imidazo[4,5-b]pyridin-5-yl)pyrrolo[2,1-f][1,2,4]triazin-2-yl)amino)cyclohexyl)acetamide]
377 | c1cn2cc(-c3ccn4nc(NC5CCC5)ncc34)cnc2n1 [Compound 235, N-Cyclobutyl-5-(imidazo[1,2-a]pyrimidin-6-yl)pyrrolo[2,1-f][1,2,4]triazin-2-amine]
3340 | CO[C@H]1C[C@@H](Nc2ncc3c(-c4ccc5nc(C)n(CC(F)F)c5n4)ccn3n2)C1 [Compound 1091, 5-(3-(2,2-Difluoroethyl)-2-methyl-3H-imidazo[4,5-b]pyridin-5-yl)-N-(cis-3-methoxycyclobutyl)pyrrolo[2,1-f][1,2,4]triazin-2-amine]
3 | COCC(=O)N[C@]1(C)C[C@@H](Nc2ncc3c(-c4ccc5nccnc5c4)ccn3n2)C1 [Compound 1985, 2-Methoxy-N-(trans-1-methyl-3-((5-(quinoxalin-6-yl)pyrrolo[2,1-f][1,2,4]triazin-2-yl)amino)cyclobutyl)acetamide]
5 | Cc1nc2ccc(-c3ccn4nc(N[C@H]5C[C@@H](O)C5)ncc34)nc2n1CC(F)F [Compound 1720, cis-3-((5-(3-(2,2-Difluoroethyl)-2-methyl-3H-imidazo [4,5-b]pyridin-5-yl)pyrrolo[2,1-f] [1,2,4]triazin-2-yl)amino)cyclobutan-1-ol]
32 | CO[C@@H]1COCC[C@H]1Nc1ncc2c(-c3ccc4nc(C)n(CC(F)F)c4n3)ccn2n1 [Compound 1867, 5-(3-(2,2-Difluoroethyl)-2-methyl-3H-imidazo[4,5-b]pyridin-5-yl)-N-((3S,4R)-3-methoxytetrahydro-2H-pyran-4-yl)pyrrolo[2,1-f][1,2,4]triazin-2-amine]

Reference: US20230312605A1, “PYRROLO[2,1-F][1,2,4]TRIAZINES AND PREPARATION AND USES THEREOF” (BioSplice Therapeutics, Inc., priority 2021, published 2023)
